Results from the supplement of paper PMC13380429.

Tests used:
Settings in all cases: 72 h
[1] = test system: HepG2; experiment: relative viability EC50 (midpoint between 100% and the lowest measured viability); higher = less toxic
[2] = test system: Calu-3; experiment: as above
[3] = test system: U2OS; experiment: as above
[4] = test system: Vero E6; experiment: as above
[5] = test system: Caco-2; experiment: as above
[6] = test system: HepG2; experiment: drug sensitivity score (DSS) for viability; higher = more toxic; extreme values may be limits of the assay
[7] = test system: Calu-3; experiment: as above
[8] = test system: U2OS; experiment: as above
[9] = test system: Vero E6; experiment: as above
[10] = test system: Caco-2; experiment: as above
[11] = test system: HepG2; experiment: cell viability relative to DMSO; higher = less toxic
[12] = test system: Calu-3; experiment: as above
[13] = test system: U2OS; experiment: as above
[14] = test system: Vero E6; experiment: as above
[15] = test system: Caco-2; experiment: as above

Q: Which results are given for `CCN(c1nc(N)c(C(=O)NC(=N)N)nc1Cl)C(C)C` [EIPA]?
A: relative viability EC50 [1]: > 10000 nM; relative viability EC50 [2]: > 10000 nM; relative viability EC50 [3]: > 10000 nM; relative viability EC50 [4]: > 10000 nM; relative viability EC50 [5]: > 10000 nM; drug sensitivity score [6]: 1.2; drug sensitivity score [7]: 0.2; drug sensitivity score [8]: 0; drug sensitivity score [9]: 0; drug sensitivity score [10]: 0; cell viability ([11]; 1 nM): 100%; cell viability ([11]; 10 nM): 97.4%; cell viability ([11]; 100 nM): 101%; cell viability ([11]; 1000 nM): 85.6%; cell viability ([11]; 10000 nM): 86.5%; cell viability ([12]; 1 nM): 92.4%; cell viability ([12]; 10 nM): 104%; cell viability ([12]; 100 nM): 91.9%; cell viability ([12]; 1000 nM): 102%; cell viability ([12]; 10000 nM): 84.9%; cell viability ([13]; 1 nM): 99.7%; cell viability ([13]; 10 nM): 100%; cell viability ([13]; 100 nM): 99.8%; cell viability ([13]; 1000 nM): 102%; cell viability ([13]; 10000 nM): 93.8%; cell viability ([14]; 1 nM): 103%; cell viability ([14]; 10 nM): 94.2%; cell viability ([14]; 100 nM): 96.2%; cell viability ([14]; 1000 nM): 94.2%; cell viability ([14]; 10000 nM): 104%; cell viability ([15]; 1 nM): 90.8%; cell viability ([15]; 10 nM): 104%; cell viability ([15]; 100 nM): 101%; cell viability ([15]; 1000 nM): 100%; cell viability ([15]; 10000 nM): 105%

Q: What does the source list for `O=C(/C=C/c1cccnc1)NCCCCC1CCN(C(=O)c2ccccc2)CC1` [FK-866]?
A: relative viability EC50 [1]: 9.2 nM; relative viability EC50 [2]: 39.2 nM; relative viability EC50 [3]: 30.3 nM; relative viability EC50 [4]: 36.1 nM; relative viability EC50 [5]: 13.4 nM; drug sensitivity score [6]: 31.9; drug sensitivity score [7]: 28.1; drug sensitivity score [8]: 30.7; drug sensitivity score [9]: 29.4; drug sensitivity score [10]: 33.2; cell viability ([11]; 1 nM): 84.6%; cell viability ([11]; 10 nM): 57.9%; cell viability ([11]; 100 nM): 16.6%; cell viability ([11]; 1000 nM): 11.3%; cell viability ([11]; 10000 nM): 11.7%; cell viability ([12]; 1 nM): 110%; cell viability ([12]; 10 nM): 112%; cell viability ([12]; 100 nM): 7%; cell viability ([12]; 1000 nM): 5.1%; cell viability ([12]; 10000 nM): 4.6%; cell viability ([13]; 1 nM): 97.8%; cell viability ([13]; 10 nM): 98.1%; cell viability ([13]; 100 nM): 0%; cell viability ([13]; 1000 nM): -0.5%; cell viability ([13]; 10000 nM): 0%; cell viability ([14]; 1 nM): 106%; cell viability ([14]; 10 nM): 106%; cell viability ([14]; 100 nM): 2.7%; cell viability ([14]; 1000 nM): 1.2%; cell viability ([14]; 10000 nM): 1.9%; cell viability ([15]; 1 nM): 93.7%; cell viability ([15]; 10 nM): 65%; cell viability ([15]; 100 nM): 5.8%; cell viability ([15]; 1000 nM): 5%; cell viability ([15]; 10000 nM): 5.6%

Q: What does the source list for `Cc1c(CN2CCN(C(=O)[C@H](C)O)CC2)sc2c(N3CCOCC3)nc(-c3cnc(N)nc3)nc12` [GDC-0980]?
A: relative viability EC50 [1]: 670 nM; relative viability EC50 [2]: 537 nM; relative viability EC50 [3]: 1530 nM; relative viability EC50 [4]: 899 nM; relative viability EC50 [5]: 561 nM; drug sensitivity score [6]: 11.1; drug sensitivity score [7]: 11.9; drug sensitivity score [8]: 7.8; drug sensitivity score [9]: 8.8; drug sensitivity score [10]: 11; cell viability ([11]; 1 nM): 104%; cell viability ([11]; 10 nM): 102%; cell viability ([11]; 100 nM): 89.9%; cell viability ([11]; 1000 nM): 49.5%; cell viability ([11]; 10000 nM): 15.9%; cell viability ([12]; 1 nM): 107%; cell viability ([12]; 10 nM): 101%; cell viability ([12]; 100 nM): 93.6%; cell viability ([12]; 1000 nM): 42.2%; cell viability ([12]; 10000 nM): 19.2%; cell viability ([13]; 1 nM): 101%; cell viability ([13]; 10 nM): 98%; cell viability ([13]; 100 nM): 98.8%; cell viability ([13]; 1000 nM): 78.9%; cell viability ([13]; 10000 nM): 18.1%; cell viability ([14]; 1 nM): 96.5%; cell viability ([14]; 10 nM): 101%; cell viability ([14]; 100 nM): 87.7%; cell viability ([14]; 1000 nM): 62.9%; cell viability ([14]; 10000 nM): 23.4%; cell viability ([15]; 1 nM): 99.4%; cell viability ([15]; 10 nM): 88.5%; cell viability ([15]; 100 nM): 93.1%; cell viability ([15]; 1000 nM): 47.8%; cell viability ([15]; 10000 nM): 22.4%
